Measured values as given in article PMC7259638, “Characterization of the intestinal absorption of morroniside from Cornus officinalis Sieb. et Zucc via a Caco-2 cell monolayer model” (PLoS ONE, 2020).
Where two headings read alike, the source gives them in different places.

Key:
Type in all cases: in vitro ADME, human
[1] = Effects of influx/efflux transporter inhibitors and CO on morroniside transport in Caco-2 cell monolayers; conditions: human; for efflux ratio at 180 min, 25 μM: read-out: Efflux ratio P
Method: (§1) An initial stock solution of morroniside in methanol was prepared. The stock solution was then diluted with HBSS (pH = 7.4) and the final concentration of methanol in HBSS remained at 0.5%. […] Caco-2 cells were seeded at a density of 5 × 10^4 cells/cm^2 in a 12-well plate. The transepithelial electrical resistance (TEER) value was measured with a Millipore ERS voltameter (Burlington, MA, USA) in order to evaluate and determine monolayer integrity. The monolayers were ready for experiments 19 to 22 days after seeding.
(§2) During incubation, the culture medium was refreshed every other day. The culture medium was discarded, and 500 μL of HBSS was added to each well and incubated for 20 min at 37 °C. Afterward, each well was rinsed two times with HBSS at 37 °C. Three concentrations of morroniside (5, 25 and 100 μM) were added to either the apical (AP, 0.5 mL) or basolateral side (BL, 1.5 mL), wheras the receiving chamber contained the corresponding volume of blank HBSS medium (pH = 7.4). Incubation was performed at 37 °C for 180 min, with shaking at 50 rpm. To assess drug transport from the AP to BL side, after incubation for 5, 15, 30, 45, 60, 90, 120 or 180 min, 50 μL of the solution from the BL or AP side was collected, and replaced with an equal volume of HBSS. To study the effect of pH on morroniside (5, 25 and 100 μM) transport, the experiments were performed in HBSS, which was adjusted to pH 6.0 or pH 7.4 on the AP side depending on the experiment, and to pH 7.4 on the BL side at 37 °C.
(§3) Efflux and influx transporters were investigated for their effects on the transport flux of morroniside. Several ATP-binding cassette transporter inhibitors, including one p-glycoprotein (P-gp) inhibitor (100μM verapamil); one multidrug resistance- related protein (MRP) inhibitor (100 μM, MK571), one multidrug resistance- related protein 3 (MRP3, the main BL MRP) inhibitor ([…]) and one multidrug resistance- related protein 2 (MRP2, the main AP MRP) inhibitor (200μM indomethacin); and one breast cancer resistance protein (BCRP) inhibitor (25μM apigenin) were used to determine the transporters involved in the efflux transport of morroniside. The inhibition of the influx transport of morroniside transport across the Caco-2 cell monolayer was investigated by the addition of 50 μM sodium vanadate and cimetidine to evaluate the selectivity of Na/K-ATPase. The pH and temperature conditions of this assay were 7.4 and 37 °C, respectively.
(§4) UPLC-MS/MS data acquisition was performed using Analyst 1.5.2 and MultiQuant 2.1.1 software (Applied Biosystems). All data are shown as the mean ± standard deviation, n = 3. The data were analyzed using SPSS 20.0. In the Caco-2 cell model, the rate of transport was obtained from the amount transported versus the time curve using linear regression. The permeability coefficient of each compound was calculated using the following equation: Papp = (dQ/dt)/(A·C0).
(§5) where, dQ/dt is the rate of drug transport, C0 is the initial concentration of the compound in the donor chamber and A represents the surface area of the cell monolayer. The efflux ratio P was determined by calculating the ratio of Papp in the secretory (BA) direction divided by that in the absorptive (AB) direction, according to the following equation: P=PappBA/PappAB

BCRP = test: as above; conditions: human, 25 μM morroniside
Method: as §1, §2, §3, §4, §5

Caco-2 cell monolayers = test: as above; conditions: for PappAB (mean): AP to BL; for PappBA (mean): BL to AP; for PappAB / PappBA: pH 7.4, 37 °C
Method: as §1, §2, §3, §4, §5

MRP2 = test: as above; conditions: human, 25 μM morroniside
Method: as §1, §2, §3, §4, §5

MRP3 = test: as above; conditions: human, 25 μM morroniside
Method: as §1, §2, §3, §4, §5

MRP = test: as above; conditions: human, Caco-2, pH 7.4, with MK571 100 μM, 25 μM morroniside
Method: as §1, §2, §3, §4, §5

[2] = tested on: Na+/K+ pump (Na/K-ATPase); test: as above; conditions: human, Caco-2, pH 7.4, with sodium vanadate 50 μM, with 50 μM sodium vanadate (Na+/K+ pump); read-out: P (efflux ratio PappBA/PappAB)
Method: as §1, §2, §3, §4, §5

OATs = test: as above; conditions: human, Caco-2, pH 7.4, with cimetidine 50 μM, with 50 μM cimetidine (OATs); read-out: P (efflux ratio PappBA/PappAB)
Method: as §1, §2, §3, §4, §5

P-gp = test: as above; conditions: human, Caco-2, pH 7.4, with verapamil 100 μM, 25 μM morroniside; with verapamil 100 μM (P-gp inhibitor)
Method: as §1, §2, §3, §4, §5

[3] = 25 μM morroniside, with verapamil 100 μM
[4] = after 0.63 mg/mL CO (containing 25 μM morroniside) was added
[5] = with 50 μM sodium vanadate (Na+/K+ pump)

efflux ratio at 180 min, 25 μM ([1]; Caco-2, pH 7.4, 25 μM morroniside, Control (no inhibitor)): 1.61
efflux ratio at 180 min ([1]; Caco-2, pH 7.4, Control (no inhibitor), influx transporter experiment, read-out: P (efflux ratio PappBA/PappAB)): 1.6
efflux ratio at 180 min, 25 μM ([1]; Caco-2, pH 7.4, morroniside given as CO 0.63 mg/mL (containing 25 μM morroniside)): 0.49
Papp B→A at 180 min ([1]; Caco-2, Control (no inhibitor), influx transporter experiment, pH 7.4, 37 °C): 3.06 ± 0.6 ×10⁻⁶ cm/s
efflux ratio at 180 min, 25 μM (BCRP; Caco-2, pH 7.4, with apigenin 25 μM, with apigenin 25 μM (BCRP inhibitor), read-out: Efflux ratio P): 0.45
Papp B→A at 180 min, 25 μM (BCRP; Caco-2, pH 7.4, BL to AP, with apigenin 25 μM, read-out: PappBA (mean)): 2.78 ×10⁻⁶ cm/s
PappAB (mean) (Caco-2 cell monolayers; 25 μM morroniside, Control): 1.9 ×10⁻⁶ cm/s
PappAB (mean) (Caco-2 cell monolayers; 25 μM morroniside, with apigenin 25 μM): 6.12 ×10⁻⁶ cm/s
PappAB (mean) (Caco-2 cell monolayers; [3]): 1.84 ×10⁻⁶ cm/s
PappBA (mean) (Caco-2 cell monolayers; 25 μM morroniside, Control): 3.06 ×10⁻⁶ cm/s
PappBA (mean) (Caco-2 cell monolayers; 25 μM morroniside, with benzbromarone 50 μM): 3.04 ×10⁻⁶ cm/s
PappBA (mean) (Caco-2 cell monolayers; [3]): 2.93 ×10⁻⁶ cm/s
change of PappAB vs control (Caco-2 cell monolayers; 25 μM morroniside, after addition of apigenin (25 μM), p < 0.05): increased significantly
decrease in the efflux ratio (Caco-2 cell monolayers; 25 μM morroniside, after addition of apigenin (25 μM), vs control): 72.05%
PappAB (mean) (Caco-2 cell monolayers; morroniside given as CO 0.63 mg/mL (containing 25 μM morroniside), in 1e-6 cm/s): 4.284
PappBA (mean) (Caco-2 cell monolayers; morroniside given as CO 0.63 mg/mL (containing 25 μM morroniside)): 2.11 ×10⁻⁶ cm/s
PappAB (Caco-2 cell monolayers; Control (no inhibitor), influx transporter experiment): 1.90±0.5 ×10^-6cm/s
change of PappAB vs control (Caco-2 cell monolayers; [4]): increased significantly
change of PappBA vs control (Caco-2 cell monolayers; [4]): not significantly different
change of PappAB vs control (Caco-2 cell monolayers; after MK 571 was added): increased
change of PappBA vs control (Caco-2 cell monolayers; after MK 571 was added): no effect
change of AP to BL flux (PappAB) vs control (Caco-2 cell monolayers; after indomethacin was added, p < 0.001): significant increase
change of PappAB and PappBA vs control (Caco-2 cell monolayers; before and after addition of verapamil): did not change significantly
change of PappAB or PappBA vs control (Caco-2 cell monolayers; cotreatment with 200 μM benzbromarone): did not alter
BCRP substrate status (Caco-2 cell monolayers; from effect of apigenin (25 μM, BCRP inhibitor)): substrate of BCRP
MRP2 substrate status (Caco-2 cell monolayers; from effect of indomethacin (MRP2 inhibitor) on AP to BL flux): substrate of MRP2
P-gp involvement in transport (Caco-2 cell monolayers; from effect of verapamil (P-gp inhibitor)): might not be involved
PappAB (Caco-2 cell monolayers; with 50 μM cimetidine (OATs)): 1.82±0.5 ×10^-6cm/s
PappBA (Caco-2 cell monolayers; with 50 μM cimetidine (OATs)): 3.1±0.7 ×10^-6cm/s
PappAB (Caco-2 cell monolayers; [5]): 1.89±0.4 ×10^-6cm/s
PappBA (Caco-2 cell monolayers; [5]): 3.11±0.7 ×10^-6cm/s
efflux ratio at 180 min, 25 μM (MRP2; Caco-2, pH 7.4, with indomethacin 200 μM, with indomethacin 200 μM (MRP2 inhibitor), read-out: Efflux ratio P): 0.26
Papp A→B at 180 min, 25 μM (MRP2; Caco-2, pH 7.4, AP to BL, with indomethacin 200 μM, read-out: PappAB (mean)): 12.8 ×10⁻⁶ cm/s
Papp B→A at 180 min, 25 μM (MRP2; Caco-2, pH 7.4, BL to AP, with indomethacin 200 μM, read-out: PappBA (mean)): 3.3 ×10⁻⁶ cm/s
efflux ratio at 180 min, 25 μM (MRP3; Caco-2, pH 7.4, with benzbromarone 50 μM, with benzbromarone 50 μM (MRP3 inhibitor), read-out: Efflux ratio P): 1.72
Papp A→B at 180 min, 25 μM (MRP3; Caco-2, pH 7.4, AP to BL, with benzbromarone 50 μM, read-out: PappAB (mean)): 1.77 ×10⁻⁶ cm/s
efflux ratio at 180 min, 25 μM (MRP; with MK 571 100 μM (MRP inhibitor), read-out: Efflux ratio P): 0.4
Papp A→B at 180 min, 25 μM (MRP; AP to BL, with MK 571 100 μM, read-out: PappAB (mean)): 7.55 ×10⁻⁶ cm/s
Papp B→A at 180 min, 25 μM (MRP; BL to AP, with MK 571 100 μM, read-out: PappBA (mean)): 3.01 ×10⁻⁶ cm/s
efflux ratio at 180 min [2]: 1.65
efflux ratio at 180 min (OATs): 1.7
efflux ratio at 180 min, 25 μM (P-gp): 1.59
Structure (SMILES): COC(=O)C1=CO[C@@H](O[C@@H]2O[C@H](CO)[C@@H](O)[C@H](O)[C@H]2O)[C@@H]2[C@H](C)O[C@@H](O)C[C@H]12 [morroniside, Morroniside]
change of morroniside transport vs control (Caco-2 cell monolayers; with 50 μM cimetidine): did not significantly increase or decrease
change of morroniside transport vs control (Caco-2 cell monolayers; with 50 μM sodium vanadate): did not significantly increase or decrease
